≈ marks a conversion by molar mass, not a printed value.
Key:
Histone deacetylase HD2 = target: T1, Histone deacetylase HD2 (Zea mays, UniProt Q94F81); experiment: Inhibition of maize HD2 (mean)
T1 sequence (Q94F81 whole entry): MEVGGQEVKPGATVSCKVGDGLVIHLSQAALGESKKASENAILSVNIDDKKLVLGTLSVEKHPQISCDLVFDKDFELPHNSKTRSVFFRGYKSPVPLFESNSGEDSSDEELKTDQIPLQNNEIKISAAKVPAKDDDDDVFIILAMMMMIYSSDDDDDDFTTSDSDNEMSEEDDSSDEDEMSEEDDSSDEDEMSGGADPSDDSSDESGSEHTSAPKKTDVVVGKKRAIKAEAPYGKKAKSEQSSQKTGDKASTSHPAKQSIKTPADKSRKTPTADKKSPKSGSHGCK

Histone deacetylase HD1B = Histone deacetylase HD1B (Zea mays, UniProt Q9ZTP8); experiment: Inhibition of maize HD1-B (mean)
Sequence of Histone deacetylase HD1B (Q9ZTP8 whole entry): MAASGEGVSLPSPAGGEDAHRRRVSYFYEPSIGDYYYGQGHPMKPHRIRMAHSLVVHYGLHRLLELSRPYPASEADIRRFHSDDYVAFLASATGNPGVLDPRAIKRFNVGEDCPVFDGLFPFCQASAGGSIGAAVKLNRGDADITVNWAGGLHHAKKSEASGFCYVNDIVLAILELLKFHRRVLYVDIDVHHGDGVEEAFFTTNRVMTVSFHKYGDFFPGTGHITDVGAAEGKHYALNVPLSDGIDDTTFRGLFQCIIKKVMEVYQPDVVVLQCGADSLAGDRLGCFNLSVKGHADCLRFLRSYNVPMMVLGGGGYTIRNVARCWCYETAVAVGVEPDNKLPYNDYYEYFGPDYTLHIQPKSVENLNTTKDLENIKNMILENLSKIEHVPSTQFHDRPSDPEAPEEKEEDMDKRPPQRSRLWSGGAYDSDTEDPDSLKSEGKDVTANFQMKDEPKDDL

Histone deacetylase 1 = Histone deacetylase 1 (Mus musculus, UniProt O09106); experiment: Inhibition of mouse HDAC1 (mean)
Sequence of Histone deacetylase 1 (O09106 whole entry): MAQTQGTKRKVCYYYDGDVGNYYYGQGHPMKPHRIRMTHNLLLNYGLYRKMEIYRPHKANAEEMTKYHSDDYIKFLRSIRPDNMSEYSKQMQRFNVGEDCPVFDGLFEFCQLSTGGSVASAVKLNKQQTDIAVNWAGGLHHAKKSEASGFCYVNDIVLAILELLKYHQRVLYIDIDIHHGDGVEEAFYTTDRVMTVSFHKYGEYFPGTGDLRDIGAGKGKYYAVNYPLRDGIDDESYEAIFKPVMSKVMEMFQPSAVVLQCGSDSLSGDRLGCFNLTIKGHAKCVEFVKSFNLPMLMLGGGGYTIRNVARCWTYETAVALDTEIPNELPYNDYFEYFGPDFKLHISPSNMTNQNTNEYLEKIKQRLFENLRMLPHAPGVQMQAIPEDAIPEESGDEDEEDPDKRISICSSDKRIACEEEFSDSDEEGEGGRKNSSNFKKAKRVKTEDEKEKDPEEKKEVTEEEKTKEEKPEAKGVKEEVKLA

Candida albicans [1] = experiment: Effect of compound on Candida albicans sensitivity to Fluconazole: Minimum inhibitory concentration required to inhibit the growth of 50% of isolates after 24h.; type: functional
Candida albicans [2] = experiment: Effect of compound on Candida albicans sensitivity to Fluconazole: Minimum inhibitory concentration required to inhibit the growth of 90% of isolates after 24h.; type: functional
Candida albicans [3] = experiment: microbe, parasite or virus in culture; type: functional; settings: 48 h
Description: Effect of compound on Candida albicans sensitivity to Fluconazole: Minimum inhibitory concentration required to inhibit the growth of 50% of isolates after 48h.

Candida albicans [4] = experiment: Effect of compound on Candida albicans sensitivity to Fluconazole: Minimum inhibitory concentration required to inhibit the growth of 90% of isolates after 48h.; type: functional
[5] = target: Histone deacetylase HD1-A (Zea mays); experiment: Inhibition of maize HD1-A (mean)

SMILES | IC50 (Histone deacetylase HD2) | IC50 (Histone deacetylase HD1B) | IC50 (Histone deacetylase 1) | MIC50 (Candida albicans [1]) | MIC90 (Candida albicans [2]) | MIC50 (Candida albicans [3]) | MIC90 (Candida albicans [4]) | IC50 [5]
O=C(CCCCCCC(=O)Nc1ccccc1)NO [VORINOSTAT] | 0.013 µg/mL (≈ 0.0492 µM) | 0.007 µg/mL (≈ 0.0265 µM) |  |  |  |  |  | 
O=C(CCCCSc1nc(-c2ccc(Cl)cc2)cc(=O)[nH]1)NO | 0.006 µg/mL (≈ 0.017 µM) | 0.004 µg/mL (≈ 0.0113 µM) | 0.018 µg/mL (≈ 0.0509 µM) | 0.5 µg/mL (≈ 1.41 µM) | 2 µg/mL (≈ 5.65 µM) | 1 µg/mL (≈ 2.83 µM) | 16 µg/mL (≈ 45.2 µM) | 0.001 µg/mL (≈ 0.00283 µM)
O=C(CCCCCSc1nc(Cc2ccccc2)cc(=O)[nH]1)NO |  |  |  | 0.5 µg/mL (≈ 1.44 µM) | 4 µg/mL (≈ 11.5 µM) | 0.625 µg/mL (≈ 1.8 µM) | 12 µg/mL (≈ 34.5 µM) | 
OC(Cn1cncn1)(Cn1cncn1)c1ccc(F)cc1F [FLUCONAZOLE] |  |  |  | 1.45 µg/mL (≈ 4.73 µM) | 3.6 µg/mL (≈ 11.8 µM) | 2.5 µg/mL (≈ 8.16 µM) | 11 µg/mL (≈ 35.9 µM) | 
O=C(CCCCSc1nc(-c2ccccc2)cc(=O)[nH]1)NO |  |  |  | 0.5 µg/mL (≈ 1.57 µM) | 4 µg/mL (≈ 12.5 µM) | 0.5 µg/mL (≈ 1.57 µM) | 12 µg/mL (≈ 37.6 µM) | 
O=C(CCCCSc1nc(-c2cccc(Cl)c2)cc(=O)[nH]1)NO | 0.006 µg/mL (≈ 0.017 µM) | 0.004 µg/mL (≈ 0.0113 µM) | 0.013 µg/mL (≈ 0.0367 µM) | 0.44 µg/mL (≈ 1.24 µM) | 3.42 µg/mL (≈ 9.67 µM) | 1 µg/mL (≈ 2.83 µM) | 8 µg/mL (≈ 22.6 µM) | 
